# Results from patent US20060235013A1, “Tricyclic azole derivatives” (priority 2005, published 2006).
# Biological target: T1, Aurora A kinase (Homo sapiens, UniProt O14965)
# T1 sequence (O14965 1-403): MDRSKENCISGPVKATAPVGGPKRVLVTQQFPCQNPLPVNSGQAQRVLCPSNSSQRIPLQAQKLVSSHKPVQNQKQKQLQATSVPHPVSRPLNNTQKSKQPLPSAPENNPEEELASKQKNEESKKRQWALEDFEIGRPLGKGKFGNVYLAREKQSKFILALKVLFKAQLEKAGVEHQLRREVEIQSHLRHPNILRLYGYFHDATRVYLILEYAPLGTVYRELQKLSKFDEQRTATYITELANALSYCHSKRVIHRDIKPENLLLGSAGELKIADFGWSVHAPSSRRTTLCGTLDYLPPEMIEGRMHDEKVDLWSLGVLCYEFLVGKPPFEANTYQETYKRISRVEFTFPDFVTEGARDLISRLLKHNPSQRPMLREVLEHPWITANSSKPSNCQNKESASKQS
# Assay: IC50 determination for inhibitors of Aurora A (ELISA-type kinase assay, GST-Histone H3 substrate)
# Assay type: biochemical
# Conditions: mutant Aurora A kinase, 30 μM ATP, 40 minutes, read-out: IC50 Aurora A kinase inhibition
# Procedure: IC50 Determination for Inhibitors of Aurora A
# Aurora A is a serine threonine kinase involved in spindle assembly and chromosome segregation.
# The assay is a typically ELISA-type assay where substrate (GST-Histone H3) is coupled to the assay-plate and is phosphorylated by the kinase. Phosphorylation is detected by a mouse anti-Phosphopeptid mAb and an HRP-labeled anti-mouse pAb. The assay is validated for IC50-determination.
# Kinase activities were measured by Enzyme-Linked Immunosorbent Assay (ELISA): Maxisorp 384-well plates (Nunc) were coated with recombinant fusion protein comprising residues 1-15 of HistoneH3 fused to the N-terminus of Glutathione-S-Transferase. Plates were then blocked with a solution of 1 mg/mL I-block (a highly purified form of casein, Tropix cat. no. T2015) in phosphate-buffered saline. Kinase reactions were carried out in the wells of the ELISA plate by combining an appropriate amount of mutant Aurora A kinase with test compound and 30 μM ATP. The reaction buffer was 10× Kinase Buffer (Cell Signaling cat. no. 9802) supplemented with 1 μg/mL I-block. Reactions were stopped after 40 minutes by addition of 25 mM EDTA. After washing, substrate phosphorylation was detected by addition of anti-phospho-Histone H3 (Ser 10) 6G3 mAb (Cell Signaling cat. no. 9706) and sheep anti-mouse pAb-HRP (Amersham cat. no. NA931V), followed by colorimetric development with TMB (3,3′,5,5′-tetramethylbenzidine from Kirkegaard & Perry Laboratories). After readout of the adsorbance, IC50 values were calculated using a non-linear curve fit (XLfit software (ID Business Solution Ltd., Guilford, Surrey, UK)).
row,IC50,Compound
1,17 nM,"CC(C)N1C(=O)C(C)(C)c2cc3nc(-c4n[nH]c5c4CCC5)[nH]c3cc21 [Example 5, 5-Isopropyl-7,7-dimethyl-2-(1,4,5,6-tetrahydro-cyclopentapyrazol-3-yl)-5,7-dihydro-3H-imidazo[4,5-f]indol-6-one]"
2,12 nM,"CC(C)N1C(=O)C(C)(C)c2cc3nc(-c4n[nH]c5c4CCCC5)[nH]c3cc21 [Example 9, 5-Isopropyl-7,7-dimethyl-2-(4,5,6,7-tetrahydro-1H-indazol-3-yl)-5,7-dihydro-3H-imidazo[4,5-f]indol-6-one]"

# Test system: HCT 116 cells
# Assay: Viability assay in HCT 116 cells (CellTiter-Glo Luminescent Cell Viability Assay)
# Assay type: cell-based
# Conditions: HCT 116 human colon carcinoma cells, 5 days (120 h) incubation, ATP luminescence
# Procedure: Viability Assay in HCT 116 Cells
# A viability assay was performed using the CellTiter-Glo® Luminescent Cell Viability Assay (see Promega Corporation's Technical Bulletin No. 288, pp. 1-11 [revised February 2004] which is hereby incorporated by reference in its entirety). This assay is a homogeneous method of determining the number of viable cells in culture based on quantitation of the ATP present, an indicator of metabolically active cells. The assay is designed for use with multiwell formats, making it ideal for automated high-throughput screening (HTS), cell proliferation and cytotoxicity assays. The homogenous assay procedure involves adding a single reagent (containing luciferase, luciferan substrate, and buffer) directly to cells cultured in serum-supplemented medium. Cell washing, removal of medium and multiple pipetting steps are not required. The system detects as few as 15 cells/well in a 384-well format in 10 minutes after adding reagent and mixing.
# The homogeneous “add-mix-measure” format results in cell lysis and generation of a luminescent signal proportional to the amount of ATP present. The amount of ATP is directly proportional to the number of cells present in culture. The above-referenced assay generates a “glow-type” luminescent signal, produced by the luciferase reaction, which has a half-life generally greater than five hours, depending on cell type and medium used. The extended half-life eliminates the need to use reagent injectors and provides flexibility for continuous or batch mode processing of multiple plates. The unique homogeneous format avoids errors that may be introduced by other ATP measurement methods that require multiple steps.
# HCT 116 cells (human colon carcinoma, ATCC-No. CCl-247) were cultivated in RPMI 1640 medium with GlutaMAX™ I (cell culture media that contains L-Alanyl-L-Glutamine [a stabilized a form/source of L-Glutamine] from Invitrogen, Cat-No. 61870-010), 2.5% Fetal Calf Serum (FCS, Sigma Cat-No. F4135 (FBS)); 100 Units/ml penicillin/100 μg/ml streptomycin (=Pen/Strep from Invitrogen Cat. No. 15140). For the assay the cells were seeded in 384 well plates, 1000 cells per well, in the same medium. The next day the test compounds were added in various concentrations ranging from 30 μM to 0.0015 μM (10 concentrations, 1:3 diluted). After 5 days the viability assay was done according to the instructions of the manufacturer. In brief: the cell-plate was equilibrated to room temperature for approximately 30 minutes and then reagent (containing luciferase, luciferan substrate, and buffer) was added. The contents were carefully mixed for 15 minutes to induce cell lysis. After 45 minutes the luminescent signal was measured in Victor 2, (scanning multiwell spectrophotometer, Wallac).
# Medium: RPMI 1640 with cell culture media containing L-Alanyl-L-Glutamine [GlutaMAX™ I (Invitrogen, Cat-No. 61870)], 5% FCS (Sigma Cat.-No. F4135), Pen/Strep (Invitrogen, Cat No. 15140).
# HCT116 (ATCC-No. CCl-247): 1000 cells in 60 μl per well of 384 well plate (Greiner 781098, μClear-plate white)
# After seeding incubate plates 24 h at 37° C., 5% CO2
# 2nd. Day: Induction (Treatment with Compounds, 10 Concentrations):
# In order to achieve a final concentration of 30 μM as highest concentration 3.5 μl of 10 mM compound stock solution were added directly to 163 μl media. Then step (d) of the dilution procedure described below, was followed.
# In order to achieve the second highest to the lowest concentrations, a serial dilution with dilution steps of 1:3 was followed according to the procedure (a-d) as described here below:
# (a) for the second highest concentration add 10 μl of 10 mM stock solution of compound to 20 μl dimethylsulfoxide (DMSO)
# (b) dilute 8×1:3 (always 10 μl to 20 μl DMSO) in this DMSO dilution row (results in 9 wells with concentrations from 3333.3 μM to 0.51 μM)
# (c) dilute each concentration 1: 47.6 (3.5 μl compound dilution to 163 μl media)
# (d) add 10 μl of every concentration to 60 μl media in the cell plate […]
row,Compound,IC50
1,"CC1(C)C(=O)Nc2cc3[nH]c(-c4n[nH]c5c4CCC5)nc3cc21 [Example 1, 7,7-Dimethyl-2-(1,4,5,6-tetrahydro-cyclopentapyrazol-3-yl)-5,7-dihydro-3H-imidazo[4,5-f]indol-6-one]",100 to 2000 nM
2,"CC1(C)C(=O)N(CCCN2CCOCC2)c2cc3[nH]c(-c4n[nH]c5c4CCC5)nc3cc21 [Example 6, 7,7-Dimethyl-5-(3-morpholin-4-yl-propyl)-2-(1,4,5,6-tetrahydro-cyclopentapyrazol-3-yl)-5,7-dihydro-3H-imidazo[4,5-f]indol-6-one]",682 nM
3,"CC1(C)C(=O)Nc2cc3[nH]c(-c4n[nH]c5c4CCCC5)nc3cc21 [Example 7, 7,7-Dimethyl-2-(4,5,6,7-tetrahydro-1H-indazol-3-yl)-5,7-dihydro-3H-imidazo[4,5-f]indol-6-one]",100 to 2000 nM
4,"CCN1C(=O)C(C)(C)c2cc3nc(-c4n[nH]c5c4CN(Cc4ccccc4)CC5)[nH]c3cc21 [Example 13, 2-(5-Benzyl-4,5,6,7-tetrahydro-1H-pyrazolo[4,3-c]pyridin-3-yl)-5-ethyl-7,7-dimethyl-5,7-dihydro-3H-imidazo[4,5-f]indol-6-one]",100 to 2000 nM
5,"CCN1C(=O)C(C)(C)c2cc3nc(-c4n[nH]c5c4CN(C(=O)Cc4ccc(F)cc4)CC5)[nH]c3cc21 [Example 15, 5-Ethyl-2-{5-[2-(4-fluoro-phenyl)-acetyl]-4,5,6,7-tetrahydro-1H-pyrazolo[4,3-c]pyridin-3-yl}-7,7-dimethyl-5,7-dihydro-3H-imidazo[4,5-f]indol-6-one]",1500 nM
6,"CCN1C(=O)C(C)(C)c2cc3nc(-c4n[nH]c5c4CN(C(=O)N4CCOCC4)CC5)[nH]c3cc21 [Example 18, 5-Ethyl-7,7-dimethyl-2-[5-(morpholine-4-carbonyl)-4,5,6,7-tetrahydro-1H-pyrazolo[4,3-c]pyridin-3-yl]-5,7-dihydro-3H-imidazo[4,5-f]indol-6-one]",100 to 2000 nM
7,"CCc1cccc(CC)c1NC(=O)N1Cc2[nH]nc(-c3nc4cc5c(cc4[nH]3)N(C(C)C)C(=O)C5(C)C)c2C1 [Example 21, 3-(5-Isopropyl-7,7-dimethyl-6-oxo-3,5,6,7-tetrahydro-imidazo[4,5-f]indol-2-yl)-4,6-dihydro-1H-pyrrolo[3,4-c]pyrazole-5-carboxylic acid (2,6-diethyl-phenyl)-amide]",100 to 2000 nM
8,"CCN1C(=O)C(C)(C)c2cc3nc(-c4n[nH]c5c4CN(C(=O)Cc4cccs4)C5)[nH]c3cc21 [Example 23, 5-Ethyl-7,7-dimethyl-2-[5-(2-thiophen-2-yl-acetyl)-1,4,5,6-tetrahydro-pyrrolo[3,4-c]pyrazol-3-yl]-5,7-dihydro-3H-imidazo[4,5-f]indol-6-one]",100 to 2000 nM
9,"CC(C)N1C(=O)C(C)(C)c2cc3nc(-c4n[nH]c5c4CN(C(=O)Cc4cccs4)C5)[nH]c3cc21 [Example 24, 5-Isopropyl-7,7-dimethyl-2-[5-(2-thiophen-2-yl-acetyl)-1,4,5,6-tetrahydro-pyrrolo[3,4-c]pyrazol-3-yl]-5,7-dihydro-3H-imidazo[4,5-f]indol-6-one]",741 nM
10,"CCN1C(=O)C(C)(C)c2cc3nc(-c4n[nH]c5c4CN(S(=O)(=O)c4ccc(F)cc4)C5)[nH]c3cc21 [Example 25, 5-Ethyl-2-[5-(4-fluoro-benzenesulfonyl)-1,4,5,6-tetrahydro-pyrrolo[3,4-c]pyrazol-3-yl]-7,7-dimethyl-5,7-dihydro-3H-imidazo[4,5-f]indol-6-one]",100 to 2000 nM
11,"CCN1C(=O)C(C)(C)c2cc3nc(-c4n[nH]c5c4CSCC5)[nH]c3cc21 [Example 26, 5-Ethyl-7,7-dimethyl-2-(1,4,6,7-tetrahydro-thiopyrano[4,3-c]pyrazol-3-yl)-5,7-dihydro-3H-imidazo[4,5-f]indol-6-one]",100 to 2000 nM
12,"CC(C)N1C(=O)C(C)(C)c2cc3nc(-c4n[nH]c5c4CSC5)[nH]c3cc21 [Example 28, 2-(4,6-Dihydro-1H-thieno[3,4-c]pyrazol-3-yl)-5-isopropyl-7,7-dimethyl-5,7-dihydro-3H-imidazo[4,5-f]indol-6-one]",338 nM

# Next, values leading:
row,IC50,Compound
1,430 nM,"CN1C(=O)C(C)(C)c2cc3nc(-c4n[nH]c5c4CCC5)[nH]c3cc21 [Example 2, 5,7,7-Trimethyl-2-(1,4,5,6-tetrahydro-cyclopentapyrazol-3-yl)-5,7-dihydro-3H-imidazo[4,5-f]indol-6-one]"
2,100 to 2000 nM,"CCN1C(=O)C(C)(C)c2cc3nc(-c4n[nH]c5c4CCC5)[nH]c3cc21 [Example 3, 5-Ethyl-7,7-dimethyl-2-(1,4,5,6-tetrahydro-cyclopentapyrazol-3-yl)-5,7-dihydro-3H-imidazo[4,5-f]indol-6-one]"
3,224 nM,"CCCN1C(=O)C(C)(C)c2cc3nc(-c4n[nH]c5c4CCC5)[nH]c3cc21 [Example 4, 7,7-Dimethyl-5-propyl-2-(1,4,5,6-tetrahydro-cyclopentapyrazol-3-yl)-5,7-dihydro-3H-imidazo[4,5-f]indol-6-one]"
4,100 to 2000 nM,"CCN1C(=O)C(C)(C)c2cc3nc(-c4n[nH]c5c4CCCC5)[nH]c3cc21 [Example 8, 5-Ethyl-7,7-dimethyl-2-(4,5,6,7-tetrahydro-1H-indazol-3-yl)-5,7-dihydro-3H-imidazo[4,5-f]indol-6-one]"
5,108 nM,"CC(C)N1C(=O)C(C)(C)c2cc3nc(-c4n[nH]c5c4CCCC5)[nH]c3cc21 [Example 9, 5-Isopropyl-7,7-dimethyl-2-(4,5,6,7-tetrahydro-1H-indazol-3-yl)-5,7-dihydro-3H-imidazo[4,5-f]indol-6-one]"
